Measured values published in patent US12544417B2, “Oral film and stick jelly for improving absorption in the oral mucosa, antioxidant activity, anti-inflammatory activity, and liver function of humans and companion animals” (ESTHER FORMULA CO., LTD., priority 2022, dated 2026).

Assay: DPPH-free radical scavenging
Assay type: biochemical
Settings: ascorbic acid 100 μg/mL, positive control group
Method: 1% of the oral disintegrating film (Example 1-1), the oral mucosal adhesive film (Example 3-1), and the stick jelly (Example 4-1) were homogeneously dissolved, and centrifuged at 10,000 rpm and at 4° C. for 5 minutes to prepare a CFE (cell-free extract). 3.0 mL of a […] (DPPH) solution (5 mg/100 mL ethanol) was mixed with 500 μL of the prepared CFE, and the same amount of ethanol, MRS solution, and ascorbic acid (100 μg/mL) were used as a control group, a blank, and a comparative group, respectively. Then, the result was mixed with the DPPH solution and incubated in a dark room for 30 minutes, absorbance at 517 nm was measured, and the antioxidant activity was converted into % using Equation 1 below. [formula]

## O=C1O[C@H]([C@@H](O)CO)C(O)=C1O [ascorbic acid]
  DPPH-free radical scavenging (%): 90%
